Assay results reported in article PMC4114247 (Cancer research, 2009).

Assays:
[1] = molecular target: PSMA on human prostate cancer LNCaP cells (Homo sapiens, UniProt Q04609); assay: Saturation binding analysis on LNCaP cells
[2] = molecular target: NAALADase activity of PSMA (Homo sapiens, UniProt Q04609); assay: NAALADase inhibition in LNCaP cell lysates; type: biochemical
Sequence of NAALADase activity of PSMA (Q04609 whole entry): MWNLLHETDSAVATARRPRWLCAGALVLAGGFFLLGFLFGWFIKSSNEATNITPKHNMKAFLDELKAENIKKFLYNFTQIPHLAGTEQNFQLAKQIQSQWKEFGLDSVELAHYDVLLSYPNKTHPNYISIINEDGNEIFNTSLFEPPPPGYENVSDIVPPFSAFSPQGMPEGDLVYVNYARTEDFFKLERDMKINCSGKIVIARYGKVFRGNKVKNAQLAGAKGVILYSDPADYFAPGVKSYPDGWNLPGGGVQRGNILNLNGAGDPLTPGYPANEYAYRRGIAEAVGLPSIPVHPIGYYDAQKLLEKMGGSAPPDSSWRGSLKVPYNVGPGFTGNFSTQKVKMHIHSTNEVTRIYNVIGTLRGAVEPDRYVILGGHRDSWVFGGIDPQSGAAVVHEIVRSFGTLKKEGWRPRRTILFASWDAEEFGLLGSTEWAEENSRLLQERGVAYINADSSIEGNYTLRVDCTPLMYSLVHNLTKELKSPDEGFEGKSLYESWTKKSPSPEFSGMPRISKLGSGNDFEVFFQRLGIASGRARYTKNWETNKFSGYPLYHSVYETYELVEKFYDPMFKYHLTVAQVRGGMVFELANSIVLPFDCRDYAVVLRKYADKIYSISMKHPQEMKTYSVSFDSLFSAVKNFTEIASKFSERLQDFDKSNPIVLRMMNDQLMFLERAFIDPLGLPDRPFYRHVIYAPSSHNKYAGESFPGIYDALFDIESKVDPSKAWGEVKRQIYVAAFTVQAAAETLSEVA

Sequence of PSMA on human prostate cancer LNCaP cells (Q04609 whole entry): as above

Compound: O=C(O)CC[C@H](NC(=O)N[C@@H](CCCCNC(=O)Nc1ccc(I)cc1)C(=O)O)C(=O)O [MIP-1095, (S)-2-(3-((S)-1-carboxy-5-(3-(4-iodophenyl)ureido)pentyl)ureido)pentanedioic acid]
- Kd [1]: 0.81 ± 0.39 nM
- Greater affinity of MIP-1095 over MIP-1072 ([1]; saturation binding and NAALADase inhibition studies): approximately 5 fold

Compound: O=C(O)CC[C@H](NC(=O)N[C@@H](CCCCNCc1ccc(I)cc1)C(=O)O)C(=O)O [MIP-1072, (S)-2-(3-((S)-1-carboxy-5-(4–iodobenzylamino)pentyl)ureido)pentanedioic acid]
- Ki [2]: 4.6 ± 1.6 nM
- Kd [1]: 3.8 ± 1.3 nM
